Eleven compounds from ChEMBL document CHEMBL1201862, “PubChem BioAssay data set” (2004) can be followed below.

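Where inhibition never reached the appropriate level, the endpoint shown equals the highest concentration tested. Otherwise, values were interpolated linearly from a five-concentration, 48-hour dose response in 96-well plates. The concentration for 50% growth inhibition is given as GI50.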 Active and inactive are the calls of the source. Cut-off read from the data, not from the text of the source: active = GI50 up to about 1.1 µM and inactive = higher.

Some test systems named below: RPMI-8226; M14; CCRF-CEM; SNB-19; UACC-257; OVCAR-5; SK-OV-3; SF-295; Malme-3M; SF-268; CAKI-1; MOLT-4; NCI-H460; OVCAR-4; SK-MEL-28; 786-0; DMS-114; Hs-578T; MDA-MB-435; MCF7.
Test in all cases: NCI tumour cell line growth inhibition, 48 h

`Clc1ccc(CN2COc3c(cc(Cl)c4cccnc34)C2)cc1`: the GI50 with RPMI-8226 is 1.16 µM (inactive); in the test on M14, 1.68 µM (inactive); in the test with CCRF-CEM it was 1.79 µM (inactive); in the test with SNB-19, 4.24 µM (inactive); in the test with UACC-257, 2.84 µM (inactive); in the test with OVCAR-5, 2.24 µM (inactive). For the same compound, the GI50 in the test with SK-OV-3 was 2.77 µM (inactive); with SF-295, 2.52 µM (inactive); in the test on Malme-3M, 2.34 µM (inactive); in the test on SF-268, 2.93 µM (inactive); with CAKI-1 it was 2.62 µM (inactive); in the test with MOLT-4, 1.7 µM (inactive). The GI50 in the test on NCI-H460 is 2.29 µM (inactive); in the test with OVCAR-4, 3.33 µM (inactive); in the test with SK-MEL-28, 2.57 µM (inactive); in the test on 786-0 it was 2.74 µM (inactive); in the test on DMS-114, 1.84 µM (inactive).
For the compound `CC(C)(Oc1ccc2c(=O)cc(-c3ccccc3)oc2c1)C(=O)Nc1c(Cl)cccc1Cl`, the GI50 was 47.8 µM (inactive) with RPMI-8226; > 100 µM (inactive) with M14; 57.7 µM (inactive) with CCRF-CEM; > 100 µM (inactive) in the test on SNB-19; > 100 µM (inactive) in the test on UACC-257; > 100 µM (inactive) in the test with OVCAR-5. The GI50 was > 100 µM (inactive) with SK-OV-3; > 100 µM (inactive) in the test with SF-295; > 100 µM (inactive) in the test on Malme-3M; > 100 µM (inactive) in the test on SF-268; > 100 µM (inactive) with CAKI-1; 76.4 µM (inactive) in the test with MOLT-4. In addition, the GI50 with NCI-H460 was > 100 µM (inactive); in the test with SK-MEL-28 it was > 100 µM (inactive); in the test on 786-0, 97.1 µM (inactive); with DMS-114, 19.7 µM (inactive).
For the compound `Nc1nc2c(nnn2C2C=C(CO)C(O)C2O)c(=O)[nH]1` (stereo unspecified), the GI50 with M14, with CCRF-CEM, in the test with SNB-19, in the test on UACC-257, in the test on OVCAR-5 and with SK-OV-3 was > 100 µM (inactive) each time. Further, the GI50 in the test with SF-295 was > 100 µM (inactive); in the test with Malme-3M it was 95.7 µM (inactive); with SF-268, > 100 µM (inactive); in the test with CAKI-1, 57.7 µM (inactive); with MOLT-4 it was 42.5 µM (inactive); in the test with NCI-H460, > 100 µM (inactive). Further, the GI50 was > 100 µM (inactive) in the test on OVCAR-4, > 100 µM (inactive) in the test with SK-MEL-28, 68.5 µM (inactive) in the test with 786-0 and > 100 µM (inactive) with DMS-114.
Consider `COC(=O)C1C(O)CC(c2ccccn2)N(Cc2ccccc2)C1c1ccccn1` (stereo unspecified), for which the GI50 is 23.4 µM (inactive) in the test on RPMI-8226; > 100 µM (inactive) in the test with M14; > 100 µM (inactive) in the test on CCRF-CEM; > 100 µM (inactive) in the test with SNB-19; > 100 µM (inactive) with UACC-257; > 100 µM (inactive) with OVCAR-5. The GI50 with SK-OV-3 is > 100 µM (inactive); with SF-295, > 100 µM (inactive); with Malme-3M, > 100 µM (inactive); in the test on SF-268, > 100 µM (inactive); with CAKI-1, > 100 µM (inactive); with MOLT-4 it was 37.6 µM (inactive). Besides, the GI50 in the test with NCI-H460, in the test with OVCAR-4, in the test with SK-MEL-28, with 786-0 and in the test on DMS-114 was > 100 µM (inactive) each time.
In the case of `CO/C=C/c1cc2c(cc1C(OC)OC)OCO2`, the GI50 in the test with M14 was 31.1 µM (inactive); in the test with CCRF-CEM, 39.7 µM (inactive); with SNB-19, 36.7 µM (inactive); in the test on UACC-257 it was > 100 µM (inactive); in the test on OVCAR-5, 52.8 µM (inactive); with SK-OV-3, 26.1 µM (inactive). Also, the GI50 in the test on Malme-3M is 53.6 µM (inactive); in the test with SF-268 it was 52.1 µM (inactive); in the test on CAKI-1, 29.5 µM (inactive); in the test with MOLT-4 it was 33.7 µM (inactive); in the test with NCI-H460, 36 µM (inactive); in the test on OVCAR-4, > 100 µM (inactive). Also, the GI50 in the test on SK-MEL-28 was > 100 µM (inactive); in the test with 786-0 it was 42.6 µM (inactive); in the test with DMS-114, 32.9 µM (inactive).
As for `CN1CC(=O)N(C)c2ncn(Cc3ccccc3)c2C1=O`, the GI50 in the test with RPMI-8226, in the test with M14, in the test on CCRF-CEM, in the test with SNB-19, in the test with SK-OV-3 and with SF-295 was > 100 µM (inactive) in each case. Also, the GI50 in the test with Malme-3M is > 100 µM (inactive); in the test with SF-268 it was 12.2 µM (inactive); in the test with MOLT-4, > 100 µM (inactive); with NCI-H460, > 100 µM (inactive); in the test on OVCAR-4 it was > 100 µM (inactive); with SK-MEL-28, > 100 µM (inactive). The GI50 in the test on 786-0 and in the test on DMS-114 was > 100 µM (inactive) in each case.
For the compound `CCN(CC)c1c(C(=O)/C=C/c2ccc(OC)cc2)c(-c2ccccc2)nn(C)c1=O`, the GI50 was 6.78 µM (inactive) in the test with CCRF-CEM; 17.8 µM (inactive) with SNB-19; 19.6 µM (inactive) in the test on UACC-257; 5.46 µM (inactive) in the test with OVCAR-5; 36 µM (inactive) in the test on SK-OV-3; 21.5 µM (inactive) in the test on SF-295. The GI50 in the test with Malme-3M is 15.1 µM (inactive); in the test on SF-268 it was 6.52 µM (inactive); in the test with CAKI-1 it was 29.8 µM (inactive); in the test on MOLT-4 it was 2.67 µM (inactive); in the test with NCI-H460 it was 7.83 µM (inactive); in the test with OVCAR-4, 8.75 µM (inactive). Also, the GI50 was 16.7 µM (inactive) with SK-MEL-28, 14.1 µM (inactive) in the test on 786-0 and 13.4 µM (inactive) in the test with DMS-114.
`O=C(/C=C/c1cc(O)c(O)cc1O)OCCc1ccccc1`: the GI50 in the test with RPMI-8226 was 3.56 µM (inactive); in the test on M14, 14.9 µM (inactive); in the test with CCRF-CEM, 2.07 µM (inactive); with SNB-19, 61.7 µM (inactive); in the test with UACC-257, 34.8 µM (inactive); with Hs-578T, 39.5 µM (inactive). The GI50 with OVCAR-5 is > 41.9 µM (inactive); in the test on SK-OV-3, 26.8 µM (inactive); with SF-295 it was 29.4 µM (inactive); in the test with MDA-MB-435, 20.2 µM (inactive); in the test with MCF7 it was 15 µM (inactive); with Malme-3M, 13.6 µM (inactive). Further, the GI50 in the test on SF-268 was 19 µM (inactive); in the test on CAKI-1, 24.5 µM (inactive); with MOLT-4, 2.87 µM (inactive); in the test on NCI-H460 it was 34.5 µM (inactive); in the test on OVCAR-4, 17.7 µM (inactive); in the test on SK-MEL-28 it was 21 µM (inactive). For the same compound, the GI50 in the test with 786-0 is 5.05 µM (inactive).
On to `[O-]c1c2cc(-[n+]3c(-c4ccccc4)cc(-c4ccccc4)cc3-c3ccccc3)cc1CO[C@@H](c1ccccc1)[C@H](c1ccccc1)OCCOCCO[C@@H](c1ccccc1)[C@H](c1ccccc1)OC2`, for which the GI50 with RPMI-8226 was 0.0176 µM (active); in the test with M14, 0.0687 µM (active); with CCRF-CEM, 0.048 µM (active); in the test with SNB-19 it was 0.0489 µM (active); with UACC-257, 0.106 µM (active); with Hs-578T it was 0.0652 µM (active). For the same compound, the GI50 in the test with OVCAR-5 is 0.453 µM (active); with SK-OV-3, 0.0502 µM (active); with SF-295, 0.0719 µM (active); in the test on MDA-MB-435 it was 0.049 µM (active); with MCF7, 0.0382 µM (active); in the test on Malme-3M, 0.0407 µM (active). The GI50 in the test on SF-268 was 0.0635 µM (active); with CAKI-1 it was 0.335 µM (active); in the test on MOLT-4, 0.0397 µM (active); in the test on NCI-H460, 0.0363 µM (active); with OVCAR-4, 0.107 µM (active); in the test on SK-MEL-28, 0.475 µM (active). In the test with 786-0, the GI50 is 0.0448 µM (active).
Regarding `COc1ccc(OC)c(NC(=O)c2c(Cl)c(Cl)c(Cl)c(Cl)c2-c2nc3ccccc3[nH]2)c1`, the GI50 in the test on RPMI-8226 was 45.4 µM (inactive); in the test with M14, > 100 µM (inactive); in the test with CCRF-CEM it was 49.2 µM (inactive); in the test with SNB-19, > 100 µM (inactive); in the test on UACC-257 it was > 100 µM (inactive); in the test on Hs-578T, > 100 µM (inactive). For the same compound, the GI50 in the test on OVCAR-5 is > 100 µM (inactive); in the test on SK-OV-3, > 100 µM (inactive); in the test on SF-295, > 100 µM (inactive); with MDA-MB-435, > 100 µM (inactive); in the test on MCF7, 76.7 µM (inactive); with Malme-3M, > 100 µM (inactive). Moreover, the GI50 is > 100 µM (inactive) in the test with SF-268; > 100 µM (inactive) in the test with CAKI-1; 56.2 µM (inactive) in the test on MOLT-4; > 100 µM (inactive) in the test with NCI-H460; > 100 µM (inactive) with OVCAR-4; > 100 µM (inactive) in the test on SK-MEL-28. In addition, the GI50 with 786-0 is > 100 µM (inactive).
Consider `Cc1nnc2n1N=C(c1cc(F)c(Cl)cc1Cl)/C(=C/c1ccc3c(c1)OCO3)S2`, for which the GI50 in the test on RPMI-8226 is 43.6 µM (inactive); in the test on M14, > 100 µM (inactive); with CCRF-CEM, 43 µM (inactive); in the test on SNB-19, > 100 µM (inactive); in the test with UACC-257, 71.1 µM (inactive); in the test with Hs-578T, 71.6 µM (inactive). For the same compound, the GI50 in the test on OVCAR-5 was 32.1 µM (inactive); in the test on SK-OV-3 it was > 100 µM (inactive); in the test with SF-295, 53.3 µM (inactive); in the test on MDA-MB-435, 45.9 µM (inactive); with MCF7, 35.5 µM (inactive); in the test with Malme-3M, > 100 µM (inactive). Also, the GI50 is 88.9 µM (inactive) in the test on SF-268; 69.7 µM (inactive) in the test with CAKI-1; 38.1 µM (inactive) with MOLT-4; > 100 µM (inactive) with NCI-H460; 51.6 µM (inactive) in the test with OVCAR-4; > 100 µM (inactive) in the test with SK-MEL-28. In the test on 786-0, the GI50 is 47.4 µM (inactive).
